Data set [1] addresses T1, hCB2 (Homo sapiens, UniProt P34972). Kind of data set: Antagonism of CB2 receptors expressed in CHO cells, cAMP assay against CP 55,940 (Protocol IX.1). Format: cell-based. The conditions noted are these: h-CB2/CHO cells, vs 10 nM CP 55,940; for inhibition at 10 µM: CHO. Details: expressed in transfected cells; host or cells: CHO (h-CB2/CHO, G418-selected). On the procedure: (§1) IX. Assay for Determining Agonist and Antagonist Activity to CB1 and CB2 Receptors
1. Antagonism of CB1/CB2 Receptors Expressed in CHO Cells.
h-CB1/CHO or h-CB2/CHO cells were grown in HAM's F12 DMEM medium (Sigma) with 10% FBS (Hyclone), 1% penicillin-streptomycin solution and 400 μg/ml of G418 (Sigma). 5000 cells were seeded per well in a 96 well plate and incubated for 24 hours at 37° C. in 5% CO2. On the day of assay, cells were washed with warm Krebs buffer containing 0.1% fatty acid free (FAF) BSA (Sigma) and re-suspended in the same buffer containing 1 mM IBMX. Test antagonist or reference compound (AM 251 (1-(2,4-dichlorophenyl)-5-(4-iodophenyl)-4-methyl-N-(1-piperidyl)pyrazole-3-carboxamide) for CB1 and SR144528 for CB2) diluted in FAFBSA+IBMX+Krebs buffer was added to the cells and incubated for 10 minutes at room temperature. CP 55,940 (30 nM final concentration for CB1 testing and 10 nM of the same for CB2 testing) was added to cells followed by forskolin (10 μM final concentration) and incubated for 30 minutes at room temperature. At the end of incubation, cells were lysed using lysis reagent from the cAMP estimation kit and cAMP was quantitated by the chemiluminescence method described in the manufacturer's instructions (DiscoveRX). EC50 values were calculated from dose response curves by nonlinear regression analysis using PRISM software.

Data set [2] has as its target T1, hCB2. Kind of data set: In vitro binding assay using hCB2-CHO membranes, [3H]-CP-55,940 displacement (Protocol IV). Details: expressed in transfected cells; host or cells: CHO (hCB2-CHO, generated in-house). The conditions noted are these: for inhibition at 0.3 µM: 1 h, read-out: % Displacement Protocol IV. An outline of the steps: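 Compounds were tested at a single 300 nM final concentration for displacing 0.75 nM [3H]-CP-55,940 from hCB2-CHO membranes (1 h, 30 °C, 50 mM Tris pH 7.4, 5 mM MgCl2, 1 mM EDTA, 0.1% BSA). Filter-bound radioactivity was counted, with 0.5 μM unlabelled CP-55,940 for nonspecific binding; results are % displacement.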

Data set [3] has as its target T2, hCB1 (Homo sapiens, UniProt P21554). Kind of data set: Agonism of CB1 receptors expressed in CHO cells, forskolin cAMP assay (Protocol IX.2). Type of data set: cell-based. Details: expressed in transfected cells; host or cells: CHO (h-CB1/CHO, G418-selected). The conditions noted are these: for activation at 10 µM: CHO. On the procedure:
as §1
2. Agonism of CB1/CB2 Receptors Expressed in CHO Cells
h-CB1/CHO or h-CB2/CHO cells were grown in HAM's F12 DMEM medium (Sigma) with 10% FBS (Hyclone), 1% penicillin-streptomycin solution and 400 μg/ml of G418 (Sigma). 5000 cells were seeded per well in a 96 well plate and incubated for 24 hours at 37° C. in 5% CO2. On the day of assay, cells were washed with warm Krebs Buffer containing 0.1% fatty acid free (FAF) BSA (Sigma) and re-suspended in the same buffer containing 1 mM IBMX. […] At the end of incubation, cells were lysed using lysis reagent from the cAMP estimation kit and cAMP was quantitated by chemiluminescence method described in the manufacturer's instructions (DiscoveRX). EC50 values were calculated from dose response curves by nonlinear regression analysis using PRISM software.

Data set [4] deals with T1, hCB2. Kind of data set: Agonism of CB2 receptors expressed in CHO cells, forskolin cAMP assay (Protocol IX.2). Type of data set: cell-based. Details: expressed in transfected cells; host or cells: CHO (h-CB2/CHO, G418-selected). The settings on record: cAMP. In outline: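 CHO cells expressing h-CB2 were treated with compound in Krebs buffer with 0.1% FAF BSA and 1 mM IBMX, plus 10 uM forskolin, for 30 minutes at room temperature. cAMP in lysates was measured by chemiluminescence. EC50 was derived by nonlinear regression of dose–response curves, with CP 55,940 at 10 μM as reference for CB2.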
In general terms: Cyclic AMP is a second messenger, typically raised through Gs and lowered through Gi signalling.

In data set [5] the target is T2, hCB1. Kind of data set: Antagonism of CB1 receptors expressed in CHO cells, cAMP assay against CP 55,940 (Protocol IX.1). Type of data set: cell-based. Also noted: expressed in transfected cells; host or cells: CHO (h-CB1/CHO, G418-selected). The conditions noted are these: for inhibition at 10 µM: read-out: hCB1 Antagonism.
Data set [6] deals with T2, hCB1. Kind of data set: In vitro binding assay using hCB1-CHO membranes, [3H]-CP-55,940 displacement (Protocol II). Details: expressed in transfected cells; host or cells: CHO (hCB1-CHO, generated in-house). An outline of the steps:
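Incubated 1 h at 37° C, stopped by rapid vacuum filtration on PEI-precoated GF/B filters, bound radioactivity counted by liquid scintillation.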

Data set [7] deals with CB1 (Rattus norvegicus, UniProt P20272). Kind of data set: Rat CB1 receptor binding using brain membrane, [3H]SR141716A displacement (Protocol I). Details: CB1 receptor present in a rat brain membrane preparation; from tissue; host or cells: rat brain membrane; inhibition: dose or concentration left out as unconfirmed. The settings on record: 1 h; rat brain membrane, [3H]SR141716A displacement; read-out: % Displacement Protocol I.

Setting [8] is: at 10 uM, h-CB1/CHO cells, cAMP.
Where [9] appears, read: h-CB2/CHO cells, read-out: hCB2 Agonism IC50.
Setting [10] is: at 10 uM, h-CB1/CHO cells, cAMP, vs 30 nM CP 55,940.
Setting [11] is: hCB2-CHO membranes, [3H]-CP-55,940 displacement.
[12] abbreviates: hCB2 Agonism IC50, h-CB2/CHO cells.

Like-named read-outs stand apart in the source and are kept apart here.

In general, IC50 refers to the concentration at which inhibition is half-maximal. One may read the melting point as the temperature, or range, at which the solid turns liquid.

T1 sequence (P34972 whole entry): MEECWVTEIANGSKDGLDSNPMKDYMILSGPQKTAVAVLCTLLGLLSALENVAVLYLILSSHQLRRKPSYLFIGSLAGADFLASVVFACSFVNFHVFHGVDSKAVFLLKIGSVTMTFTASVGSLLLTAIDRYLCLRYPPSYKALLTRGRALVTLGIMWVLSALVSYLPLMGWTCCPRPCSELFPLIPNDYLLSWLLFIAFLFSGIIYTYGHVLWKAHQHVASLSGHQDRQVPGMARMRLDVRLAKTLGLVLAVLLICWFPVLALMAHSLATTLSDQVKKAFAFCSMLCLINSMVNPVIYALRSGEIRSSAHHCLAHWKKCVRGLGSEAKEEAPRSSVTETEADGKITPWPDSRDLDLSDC
T2 sequence (P21554 whole entry): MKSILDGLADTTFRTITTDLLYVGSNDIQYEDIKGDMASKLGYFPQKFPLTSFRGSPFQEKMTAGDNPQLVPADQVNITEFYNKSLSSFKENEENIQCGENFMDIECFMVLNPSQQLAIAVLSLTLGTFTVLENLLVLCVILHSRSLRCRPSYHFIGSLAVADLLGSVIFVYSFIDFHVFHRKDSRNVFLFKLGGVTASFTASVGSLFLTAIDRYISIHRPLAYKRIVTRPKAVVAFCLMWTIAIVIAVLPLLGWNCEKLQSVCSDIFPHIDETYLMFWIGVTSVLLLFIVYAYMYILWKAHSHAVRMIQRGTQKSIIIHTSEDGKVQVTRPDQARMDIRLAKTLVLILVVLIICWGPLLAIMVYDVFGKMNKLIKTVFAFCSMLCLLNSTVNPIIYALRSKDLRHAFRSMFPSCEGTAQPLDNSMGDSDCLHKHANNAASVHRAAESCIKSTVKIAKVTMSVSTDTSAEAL
Sequence of CB1 (P20272 whole entry): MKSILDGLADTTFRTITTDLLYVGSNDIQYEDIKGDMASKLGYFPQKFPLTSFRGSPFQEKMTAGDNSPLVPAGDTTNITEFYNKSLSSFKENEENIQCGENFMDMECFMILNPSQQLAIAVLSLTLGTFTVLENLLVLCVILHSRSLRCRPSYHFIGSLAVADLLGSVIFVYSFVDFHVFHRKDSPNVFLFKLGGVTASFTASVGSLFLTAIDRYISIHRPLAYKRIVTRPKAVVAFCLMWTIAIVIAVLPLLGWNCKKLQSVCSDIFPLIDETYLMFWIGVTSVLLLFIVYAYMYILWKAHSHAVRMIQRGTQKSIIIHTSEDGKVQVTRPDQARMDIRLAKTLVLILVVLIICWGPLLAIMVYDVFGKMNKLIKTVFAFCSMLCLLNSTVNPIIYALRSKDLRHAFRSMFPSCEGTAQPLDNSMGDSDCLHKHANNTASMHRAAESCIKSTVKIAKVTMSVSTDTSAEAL

In turn, `O=C(NCC1CC1)c1nn(-c2ccc(F)cc2F)c2c1C1CCC2C1` (centres unmarked) [Example 314, N(3)-Cyclopropanmethyl-1-(2,4-difluorophenyl)-4,5,6,7-tetrahydro-1H-4,7-methano-indazole-3-carboxamide] displayed a melting point of 113 to 115 °C. The inhibition at 10 µM in data set [1] was 22.9%. Further, in data set [2], the inhibition at 0.3 µM came out at 64.9%. In data set [3] (setting [8]), this compound came in with an activation at 10 µM of 3.41%. The IC50 in data set [4] (setting [9]) came out at 8.52 nM. Besides, the inhibition at 10 µM in data set [5] (setting [10]) stood at 0%.
Compound `O=C(NNc1ccccc1F)c1nn(-c2ccc(F)cc2F)c2c1C1CCC2C1` (centres unmarked) [Example 288, N(3)-[(2-Fluorophenyl)amino]-1-(2,4-difluorophenyl)-4,5,6,7-tetrahydro-1H-4,7-methano-indazole-3-carboxamide] had a melting point of 172 to 175 °C. The compound also showed an inhibition at 10 µM in data set [1] of 17.1%. Also, in data set [2] (setting [11]), the inhibition at 0.3 µM is 60.8%. The same compound had an activation at 10 µM in data set [3] (setting [8]) of 0%. Moreover, 4.76 nM corresponded to half-maximal inhibition in data set [4] (setting [12]) (IC50). The inhibition at 10 µM in data set [5] (setting [10]) came to 55.3%.
As for `O=C(NC1CCC1)c1nn(-c2ccc(F)cc2F)c2c1C1CCC2C1` (centres unmarked) [Example 315, N(3)-Cyclobutyl-1-(2,4-difluorophenyl)-4,5,6,7-tetrahydro-1H-4,7-methano-indazole-3-carboxamide], the melting point lay in the range of 123 to 125 °C. In addition, in data set [1], the inhibition at 10 µM is 16.1%. In addition, the inhibition at 0.3 µM in data set [2] was found to be 64.2%. Further, the activation at 10 µM in data set [3] (setting [8]) was found to be 12.6%. Moreover, in data set [4] (setting [9]), the IC50 fell in the range of 0.16 to 1.76 nM. For the same compound, in data set [5] (setting [10]), the inhibition at 10 µM amounted to 1%.
Regarding `O=C(NCC1CCOCC1)c1nn(-c2ccc(F)cc2F)c2c1C1CCC2C1` (centres unmarked) [Example 316, N(3)-(Tetrahydro-2H-4-pyranmethyl)-1-(2,4-difluorophenyl)-4,5,6,7-tetrahydro-1H-4,7-methano-indazole-3-carboxamide], in data set [1] (at 10 uM), the “hCB2 Antagonism” value stood at 37.63% at. In addition, in data set [2] (setting [11]), the “% Displacement Protocol IV” value was 66.65%. Also, the “hCB1 Agonism” value in data set [3] (setting [8]) was determined as 18.53% at. For the same compound, the “% Displacement Protocol II” value in data set [6] came to 13.83%. Further, the IC50 in data set [4] (setting [9]) was in the range of 1.2 to 4.27 nM. Also, the “hCB1 Antagonism” value in data set [5] (setting [10]) is on record as 2% at 10 uM.
For `O=C(NCc1ccccc1)c1n[nH]c2c1C1CC3CC(CC2C3)C1` [Example 186, N(7)-Benzyl-5,6-diazatetracyclo[7.3.1.1^3,11.0^4,8]tetradeca-4(8)-6-diene-7-carboxamide], the values for the inhibition at 10 µM in data set [1] and in data set [5] (setting [10]) were 21% and 0%, respectively. Also, the inhibition at 0.3 µM in data set [2] (setting [11]) is 59.1%. Further, the inhibition in data set [7] stood at 17.2%. In data set [3] (setting [8]), this compound registered an activation at 10 µM of 29.4%. The same compound returned an IC50 in data set [4] (setting [12]) of 8.51 nM.
Take `CC(C)(C)NC(=O)c1nn(-c2ccc(F)cc2)c2c1C1CCC2C1` (centres unmarked) [Example 323, N(3)-(tert-Butyl)-1-(4-fluorophenyl)-4,5,6,7-tetrahydro-1H-4,7-methano-indazole-3-carboxamide]: the melting point lay within 131 to 133 °C. In addition, the inhibition at 10 µM in data set [1] turned out to be 18%. For the same compound, the inhibition at 0.3 µM in data set [2] amounted to 82.5%. The activation at 10 µM in data set [3] (setting [8]) was found to be 0%. Besides, in data set [4] (setting [9]), the IC50 was found to be 14.1 nM. Also, the inhibition at 10 µM in data set [5] (setting [10]) is 0%.
Consider `CC(C)(C)NC(=O)c1nn(-c2ccc(F)cc2F)c2c1C1CCC2C1` (centres unmarked) [Example 303, N(3)-(tert-Butyl)-1-(2,4-difluorophenyl)-4,5,6,7-tetrahydro-1H-4,7-methano-indazole-3-carboxamide], for which the values for the inhibition at 10 µM in data set [1] and in data set [5] (CHO) were 17.6% and 0%, respectively. Further, the inhibition at 0.3 µM in data set [2] was found to be 89.7%. For the same compound, the IC50 was determined as 10900 nM in data set [3] and 0.61 nM in data set [4] (setting [9]).
The compound `O=C(NCc1ccccc1F)c1nn(-c2ccc(Cl)cc2Cl)c2c1C1CCC2C1` (centres unmarked) [Example 245, N(3)-(2-Fluorobenzyl)-1-(2,4-dichlorophenyl)-4,5,6,7-tetrahydro-1H-4,7-methano-indazole-3-carboxamide] displayed a melting point of 54 °C. In data set [1], this compound had an inhibition at 10 µM of 32.9%. The inhibition at 0.3 µM in data set [2] (setting [11]) is 84.8%. Further, in data set [3] (setting [8]), the activation at 10 µM is 0%. Moreover, in data set [4] (setting [12]), half-maximal inhibition (IC50) was put at 50.4 nM. Further, in data set [5] (setting [10]), the inhibition at 10 µM was determined as 70.7%.
In the case of `O=C(Nc1ccc(F)cc1F)c1nn(-c2ccc(Cl)cc2Cl)c2c1C1CCC2C1` (centres unmarked) [Example 244, N(3)-(2,4-Difluorophenyl)-1-(2,4-dichlorophenyl)-4,5,6,7-tetrahydro-1H-4,7-methano-indazole-3-carboxamide], the melting point lay within 152 to 155 °C. The compound also registered an inhibition at 10 µM in data set [1] of 25.3%. Also, the inhibition at 0.3 µM in data set [2] was found to be 88.3%. For the same compound, the activation at 10 µM in data set [3] (setting [8]) is 0%. Further, in data set [4] (setting [9]), the IC50 was 5.66 nM. For the same compound, in data set [5] (setting [10]), the inhibition at 10 µM amounted to 61.5%.
For `O=C(NCc1ccc(F)cc1F)c1nn(-c2ccc(Cl)cc2Cl)c2c1C1CCC2C1` (centres unmarked) [Example 247, N(3)-(2,4-Difluorobenzyl)-1-(2,4-dichlorophenyl)-4,5,6,7-tetrahydro-1H-4,7-methano-indazole-3-carboxamide], the melting point lay in the range of 73 to 76 °C. This compound showed an inhibition at 10 µM in data set [1] of 29.2%. Further, the inhibition at 0.3 µM in data set [2] (setting [11]) amounted to 79.1%. The compound further returned an activation at 10 µM in data set [3] (setting [8]) of 0%. The compound further came in with an IC50 in data set [4] (setting [12]) of 5.44 nM. Also, the inhibition at 10 µM in data set [5] (setting [10]) was 75.3%.
